# Values joined by “and” are separate entries in the source; they are usually repeats but may differ in a detail not shown here. Equal values may be shown once. “Also recorded” adds a separate entry of the source.
# Experiments:
# Serotonin-uptake = Serotonin-uptake (Homo sapiens, UniProt P31645); test: Novascreen serotonin-uptake assay, with reference to imipramine HCl; type: biochemical; details: for serotonin-uptake inhibition (in words): FIGS. 1 to 4, comparison with imipramine HCl
# Excerpt: FIG. 2 is a graph for a serotonin-uptake assay of a whole plant extract of a plant from the family Mesembryanthemaceae, identified by the code number 18639, as well as some comparisons with the known serotonin-uptake inhibitor imipramine HCl;
# FIG. 3 is a graph for a serotonin-uptake assay for mesembranol, identified by the code number 18623, as well as some comparisons with the known serotonin-uptake inhibitor imipramine HCl; and
# FIG. 4 is a graph for a serotonin-uptake assay for mesembranone, identified by the code number 18622, as well as some comparisons with the known serotonin-uptake inhibitor imipramine HCl.
# In addition, the whole plant extract of Sceletium N.E.Br., mesembranol and mesembranone were screened for biological activity by the National Institute of Mental Health in the United States of America through the contract with Novascreen.
# healthy adult volunteers = test: Study 2: single sublingual dose of pure (-)-mesembrine in healthy adult volunteers; type: in vivo; details: single 200 microgram sublingual dose in 1 ml of 60% ethanol
# Protocol: Various […] studies of the effects of the compounds of the invention were carried out in adult volunteers as follows:
# Study 2. N=2 Healthy Adult Volunteers, All Health Professionals Sep. 21, 1996.
# GABA B = test: Novascreen GABA B receptor screen; type: binding; details: Average: N = 2; Concentration 5,0E1
# Serotonin-uptake, sequence (P31645 whole entry): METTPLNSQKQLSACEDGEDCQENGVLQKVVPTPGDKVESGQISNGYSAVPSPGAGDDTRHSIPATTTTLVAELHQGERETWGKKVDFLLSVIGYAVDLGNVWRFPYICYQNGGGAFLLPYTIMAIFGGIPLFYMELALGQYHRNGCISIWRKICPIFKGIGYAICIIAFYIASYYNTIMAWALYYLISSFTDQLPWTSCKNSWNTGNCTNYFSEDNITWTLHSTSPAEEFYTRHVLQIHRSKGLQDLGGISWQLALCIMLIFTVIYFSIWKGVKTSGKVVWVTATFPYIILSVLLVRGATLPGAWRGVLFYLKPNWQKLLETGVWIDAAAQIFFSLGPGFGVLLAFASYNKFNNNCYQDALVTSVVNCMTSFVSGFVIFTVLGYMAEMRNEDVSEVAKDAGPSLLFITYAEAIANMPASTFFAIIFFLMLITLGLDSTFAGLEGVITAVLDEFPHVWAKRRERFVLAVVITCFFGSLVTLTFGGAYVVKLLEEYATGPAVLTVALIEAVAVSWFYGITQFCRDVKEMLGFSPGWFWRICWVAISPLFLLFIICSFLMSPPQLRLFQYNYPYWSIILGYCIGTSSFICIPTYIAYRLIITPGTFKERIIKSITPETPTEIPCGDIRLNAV
Structure (SMILES),"Percent Inhibition, Serotonin-uptake (Serotonin-uptake; Average: N = 2, Concentration 5,0E1)",serotonin-uptake inhibition (in words) (Serotonin-uptake),Anxiolytic effect (healthy adult volunteers; N=2),Duration of anxiolytic action (healthy adult volunteers; N=2),Sustained elevation of mood (healthy adult volunteers; N=2),"Duration of sustained elevation of mood (healthy adult volunteers; N=2, individual volunteers)","Onset of action (healthy adult volunteers; N=2, individual volunteers)","Percent Inhibition, GABA B (GABA B)"
"COc1ccc(C23CCC(=O)CC2N(C)CC3)cc1OC (single isomer, unassigned; (-)) [(-)-mesembrine, 3a-(3,4-dimethoxyphenyl)-octahydro-1-methyl-6H-indol-6-one]","96,5%",highly potent serotonin-uptake inhibitor,noted by both,five hours to eight hours,noted by both,approximately eight; also recorded: eleven,7 min and 12 min,"-0,6%"
COc1ccc(C23C=CC(=O)CC2N(C)CC3)cc1OC (stereo not shown) [mesembranone],–,highly potent serotonin-uptake inhibitors,–,–,–,–,–,–
COc1ccc(C23CCC(O)CC2N(C)CC3)cc1OC (stereo not shown) [mesembranol],–,highly potent serotonin-uptake inhibitors,–,–,–,–,–,–

# From patent US6288104A, “Pharmaceutical compositions containing mesembrine and related compounds” (African Natural Health CC, priority 1996, dated 2001)
